Legend:
[1] = target: GDP-bound KRAS wild-type protein (Homo sapiens, UniProt P01116); assay: Binding to KRAS by surface plasmon resonance (SPR), Single Cycle Kinetics; details: SPR, Single Cycle Kinetics, 1:1 binding model; GDP-bound KRAS wild-type protein; read-out: KRAS KD
[2] = target: GDP-bound HRAS wild-type protein (Homo sapiens, UniProt P01112); assay: Binding to HRAS by surface plasmon resonance (SPR), Single Cycle Kinetics; details: SPR; GDP-bound HRAS wild-type protein vs GDP-bound KRAS wild-type protein; KD ratio class
GDP-bound HRAS wild-type protein, sequence (P01112 whole entry): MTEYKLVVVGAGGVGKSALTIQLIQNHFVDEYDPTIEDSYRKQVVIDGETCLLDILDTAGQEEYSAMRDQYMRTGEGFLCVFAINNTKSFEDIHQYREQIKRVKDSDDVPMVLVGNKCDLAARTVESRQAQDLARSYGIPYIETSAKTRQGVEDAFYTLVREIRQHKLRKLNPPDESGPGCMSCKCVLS

[3] = target: GDP-bound NRAS wild-type protein (Homo sapiens, UniProt P01111); assay: Binding to NRAS by surface plasmon resonance (SPR), Single Cycle Kinetics; details: SPR; GDP-bound NRAS wild-type protein vs GDP-bound KRAS wild-type protein; KD ratio class
GDP-bound NRAS wild-type protein, sequence (P01111 whole entry): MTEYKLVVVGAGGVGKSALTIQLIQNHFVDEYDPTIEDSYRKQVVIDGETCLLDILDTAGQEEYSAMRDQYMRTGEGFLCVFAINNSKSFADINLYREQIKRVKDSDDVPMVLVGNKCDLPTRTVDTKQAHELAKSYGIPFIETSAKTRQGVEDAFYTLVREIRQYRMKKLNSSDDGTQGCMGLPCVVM

[4] = system: human lung cancer strain NCI-H441;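 further: cell proliferation inhibition after four days measured by CellTiter-Glo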

GDP-bound KRAS wild-type protein, sequence (P01116 whole entry): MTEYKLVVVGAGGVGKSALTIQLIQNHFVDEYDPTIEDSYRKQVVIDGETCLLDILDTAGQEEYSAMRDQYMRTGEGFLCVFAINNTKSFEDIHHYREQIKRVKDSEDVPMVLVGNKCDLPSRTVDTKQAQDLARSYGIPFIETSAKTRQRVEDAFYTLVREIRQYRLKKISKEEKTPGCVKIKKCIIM

Row | SMILES | Kd [1] | HRAS/KRAS (ratio of KD value for HRAS to KD value for KRAS) [2] | NRAS/KRAS (ratio of KD value for NRAS to KD value for KRAS) [3] | IC50 [4]
1 | CCO[C@@H]1C[C@H]2C(=O)NC3(CCC3)C(=O)N(C)[C@@H](C3CCCC3)C(=O)N(C)[C@H](C(=O)N(C)C)CC(=O)N(C)[C@@H](CC(C)C)C(=O)N[C@@H]([C@@H](C)CC)C(=O)N(C)CC(=O)N(C)[C@H]3C/C=C\CCN(C3=O)[C@@H](Cc3ccc(C)cc3)C(=O)N(C)CC(=O)N[C@@H](CCc3cc(F)c(C(F)(F)F)c(F)c3)C(=O)N2C1 [PP1414, (2S,8S,12R,14S,20S,23S,27S,30S,36S,38Z)-20-cyclopentyl-8-[2-[3,5-difluoro-4-(trifluoromethyl)phenyl]ethyl]-12-ethoxy-27-isobutyl-N,N,4,19,22,26,32,35-octamethyl-30-[(1S)-1-methylpropyl]-3,6,9,15,18,21,25,28,31,34,42-undecaoxo-2-(p-tolylmethyl)spiro[1,4,7,10,16,19,22,26,29,32,35-undecazatricyclo[34.5.1.0^10,14]dotetracont-38-ene-17,1′-cyclobutane]-23-carboxamide] | 0.074 nM | B (a compound having 3 or more and less than 10 is denoted as B) | A (a compound having 10 or more and less than 20 is denoted as A) | 4.4 nM
2 | CCO[C@@H]1C[C@H]2C(=O)NC3(CCC3)C(=O)N(C)[C@@H](C3CCCC3)C(=O)N(C)[C@H](C(=O)N3CCOCC3)CC(=O)N(C)[C@@H](CC(C)C)C(=O)N[C@@H]([C@@H](C)CC)C(=O)N(C)CC(=O)N(C)[C@H]3C/C=C\CCN(C3=O)[C@@H](Cc3ccc(C)cc3)C(=O)N(C)CC(=O)N[C@@H](CCc3cc(F)c(C(F)(F)F)c(F)c3)C(=O)N2C1 [PP1415] | 0.25 nM | A (a compound having 10 or more and less than 20 is denoted as A) | A (a compound having 10 or more and less than 20 is denoted as A) | 9.5 nM
3 | CCO[C@@H]1C[C@H]2C(=O)NC3(CCC3)C(=O)N(C)[C@@H](C3CCCC3)C(=O)N(C)[C@H](C(=O)N3CCCC3)CC(=O)N(C)[C@@H](CC(C)C)C(=O)N[C@@H]([C@@H](C)CC)C(=O)N(C)CC(=O)N(C)[C@H]3C/C=C\CCN(C3=O)[C@@H](Cc3ccc(C)cc3)C(=O)N(C)CC(=O)N[C@@H](CCc3cc(F)c(C(F)(F)F)c(F)c3)C(=O)N2C1 [PP1416] | 0.17 nM | A (a compound having 10 or more and less than 20 is denoted as A) | A (a compound having 10 or more and less than 20 is denoted as A) | 3.8 nM
4 | CCO[C@@H]1C[C@H]2C(=O)NC3(CCC3)C(=O)N(C)[C@@H](C3CCCC3)C(=O)N(C)[C@H](C(=O)N3CCOCC3)CC(=O)N(C)[C@@H](CC3CCCCC3)C(=O)N[C@@H]([C@@H](C)CC)C(=O)N(C)CC(=O)N(C)[C@H]3C/C=C\CCN(C3=O)[C@@H](Cc3ccc(C(F)(F)F)cc3)C(=O)N(C)CC(=O)N[C@@H](CCc3cc(F)c(C(F)(F)F)c(F)c3)C(=O)N2C1 [PP1418] | 0.24 nM | A (a compound having 10 or more and less than 20 is denoted as A) | AA (a compound having 20 or more is denoted as AA) | 29.9 nM
5 | CCO[C@@H]1C[C@H]2C(=O)NC3(CCC3)C(=O)N(C)[C@@H](C3CCCC3)C(=O)N(C)[C@H](C(=O)N3CCCC3)CC(=O)N(C)[C@@H](CC3CCCCC3)C(=O)N[C@@H]([C@@H](C)CC)C(=O)N(C)CC(=O)N(C)[C@H]3C/C=C\CCN(C3=O)[C@@H](Cc3ccc(C(F)(F)F)cc3)C(=O)N(C)CC(=O)N[C@@H](CCc3cc(F)c(C(F)(F)F)c(F)c3)C(=O)N2C1 [PP1419] | 0.26 nM | A (a compound having 10 or more and less than 20 is denoted as A) | AA (a compound having 20 or more is denoted as AA) | 40.4 nM
6 | CCO[C@@H]1C[C@H]2C(=O)NC3(CCC3)C(=O)N(C)[C@@H](C3CCCC3)C(=O)N(C)[C@H](C(=O)N3CCOCC3)CC(=O)N(C)[C@@H](CC3CCCCC3)C(=O)N[C@@H]([C@@H](C)CC)C(=O)N(C)CC(=O)N(C)[C@H]3C/C=C\CCN(C3=O)[C@@H](Cc3ccc(C)cc3)C(=O)N(C)CC(=O)N[C@@H](CCc3cc(F)c(C(F)(F)F)c(F)c3)C(=O)N2C1 [PP1420] | 0.35 nM | A (a compound having 10 or more and less than 20 is denoted as A) | A (a compound having 10 or more and less than 20 is denoted as A) | 31.4 nM
7 | CCO[C@@H]1C[C@H]2C(=O)NC3(CCC3)C(=O)N(C)[C@@H](C3CCCC3)C(=O)N(C)[C@H](C(=O)N3CCOCC3)CC(=O)N(C)[C@@H](CC3CCC3)C(=O)N[C@@H]([C@@H](C)CC)C(=O)N(C)CC(=O)N(C)[C@H]3C/C=C\CCN(C3=O)[C@@H](Cc3ccc(C(F)(F)F)cc3)C(=O)N(C)CC(=O)N[C@@H](CCc3cc(F)c(C(F)(F)F)c(F)c3)C(=O)N2C1 [PP1422] | 0.22 nM | A (a compound having 10 or more and less than 20 is denoted as A) | AA (a compound having 20 or more is denoted as AA) | 14.1 nM
8 | CCO[C@@H]1C[C@H]2C(=O)NC3(CCC3)C(=O)N(C)[C@@H](C3CCCC3)C(=O)N(C)[C@H](C(=O)N3CCCC3)CC(=O)N(C)[C@@H](CC3CCC3)C(=O)N[C@@H]([C@@H](C)CC)C(=O)N(C)CC(=O)N(C)[C@H]3C/C=C\CCN(C3=O)[C@@H](Cc3ccc(C(F)(F)F)cc3)C(=O)N(C)CC(=O)N[C@@H](CCc3cc(F)c(C(F)(F)F)c(F)c3)C(=O)N2C1 [PP1423] | 0.14 nM | A (a compound having 10 or more and less than 20 is denoted as A) | AA (a compound having 20 or more is denoted as AA) | 4.4 nM
9 | CCO[C@@H]1C[C@H]2C(=O)NC3(CCC3)C(=O)N(C)[C@@H](C3CCCC3)C(=O)N(C)[C@H](C(=O)N3CCOCC3)CC(=O)N(C)[C@@H](CC3CCC3)C(=O)N[C@@H]([C@@H](C)CC)C(=O)N(C)CC(=O)N(C)[C@H]3C/C=C\CCN(C3=O)[C@@H](Cc3ccc(C)cc3)C(=O)N(C)CC(=O)N[C@@H](CCc3cc(F)c(C(F)(F)F)c(F)c3)C(=O)N2C1 [PP1424] | 0.23 nM | A (a compound having 10 or more and less than 20 is denoted as A) | A (a compound having 10 or more and less than 20 is denoted as A) | 26.3 nM
10 | CCO[C@@H]1C[C@H]2C(=O)NC3(CCC3)C(=O)N(C)[C@@H](C3CCCC3)C(=O)N(C)[C@H](C(=O)N3CCCC3)CC(=O)N(C)[C@@H](CC3CCC3)C(=O)N[C@@H]([C@@H](C)CC)C(=O)N(C)CC(=O)N(C)[C@H]3C/C=C\CCN(C3=O)[C@@H](Cc3ccc(C)cc3)C(=O)N(C)CC(=O)N[C@@H](CCc3cc(F)c(C(F)(F)F)c(F)c3)C(=O)N2C1 [PP1425] | 0.24 nM | B (a compound having 3 or more and less than 10 is denoted as B) | A (a compound having 10 or more and less than 20 is denoted as A) | 20.2 nM
11 | CCO[C@@H]1C[C@H]2C(=O)NC3(CCC3)C(=O)N(C)[C@@H](C3CCCC3)C(=O)N(C)[C@H](C(=O)N(C)C)CC(=O)N(C)[C@@H](CC3CC3)C(=O)N[C@@H]([C@@H](C)CC)C(=O)N(C)CC(=O)N(C)[C@H]3C/C=C\CCN(C3=O)[C@@H](Cc3ccc(F)cc3)C(=O)N(C)CC(=O)N[C@@H](CCc3ccc4sccc4c3)C(=O)N2C1 [PP1426] | 1 nM | B (a compound having 3 or more and less than 10 is denoted as B) | A (a compound having 10 or more and less than 20 is denoted as A) | 475 nM
12 | CCO[C@@H]1C[C@H]2C(=O)NC3(CCC3)C(=O)N(C)[C@@H](C3CCCC3)C(=O)N(C)[C@H](C(=O)N(C)C)CC(=O)N(C)[C@@H](CC(C)C)C(=O)N[C@@H]([C@@H](C)CC)C(=O)N(C)CC(=O)N(C)[C@H]3C/C=C\CCN(C3=O)[C@@H](Cc3ccc(F)cc3)C(=O)N(C)CC(=O)N[C@@H](CCc3ccc4sccc4c3)C(=O)N2C1 [PP1427] | 0.99 nM | B (a compound having 3 or more and less than 10 is denoted as B) | A (a compound having 10 or more and less than 20 is denoted as A) | 465 nM
13 | CCO[C@@H]1C[C@H]2C(=O)NC3(CCC3)C(=O)N(C)[C@@H](C(CC)CC)C(=O)N(C)[C@H](C(=O)N(C)C)CC(=O)N(C)[C@@H](CC3CC3)C(=O)N[C@@H]([C@@H](C)CC)C(=O)N(C)CC(=O)N(C)[C@H]3C/C=C\CCN(C3=O)[C@@H](CC3CCCCC3)C(=O)N(C)CC(=O)N[C@@H](CCc3cc(F)c(C(F)(F)F)c(F)c3)C(=O)N2C1 [PP1428] | 0.87 nM | A (a compound having 10 or more and less than 20 is denoted as A) | AA (a compound having 20 or more is denoted as AA) | 38.8 nM
